Patent US10172812B2, “Compounds and methods for treating muscular dystrophy and other disorders” (The Charlotte Mecklenburg Hospital Authority, priority 2017, dated 2019)
Entries after “also recorded” stand apart in the source; their conditions may differ.

Legend:
Assay type in all cases: in vivo, mouse
[1] = system: FKRP-P448L mutant dystrophic mice; test: Treadmill exercise in FKRP P448L mutant mice; settings: 1 year treatment, vs saline-treated cohort
From the text: FIG. 6. […] Saline treated control, column 1; C57 normal control, column 8).
(§1) This invention applies tamoxifen and raloxifene for clinical use in FKRP mutant dystrophic mouse models for the treatment of dystroglycanopathies, specifically those caused by mutations in the FKRP gene. Mutations in the FKRP gene cause muscular dystrophy with the lack of functional glycosylation of alpha-dystroglycan (α-DG) as the characteristic biochemical marker in the diseased tissues. Mouse models with the FKRP mutations present in patients show the same biochemical feature as patients' tissues, most prominently in muscles (Chan Y M, Hum Mol Genet 2010, 19(20): 3995-4006; Blaeser A, Hum Genet 2013, 132(8): 923-934). […] Histologically, the diseased muscles undergo continuous degeneration as indicated by the presence of degenerating muscle fibers, variation in fiber size, presence of centrally nucleated fibers (a result of regeneration which is the consequence of muscle damage), inflammatory cells and an increase in non-muscle fiber connective tissues (FIG. 1). […] The best results were obtained with 5-10 mg/kg tamoxifen and 50 mg/kg raloxifene, which would be equivalent to human equivalent dose (HED) of about 0.5 mg/kg for tamoxifen and 5 mg/kg for raloxifene.

[2] = system: FKRP-P448L mutant dystrophic mice; test: Muscle histology (H&E staining) in FKRP P448L mutant mice; settings: for fibrotic streaks in cardiac muscle / histology (H&E) / inflammation, degeneration and fibrotic tissue in skeletal muscle: 1 year of treatment, 5 day a week; for inflammation, degeneration and fibrotic tissue in muscle / muscle pathology (H&E): 6 month treatment, 5 days a week, 10 mg/kg, vs saline
Method: FIG. 1. […] C57 normal mouse muscles were used as controls. Saline, mice treated with saline as negative control. […] Hematoxylin and eosin (H&E) staining was used.
FIG. 4. […] H&E staining was used. The therapeutic effect is best seen with 10 mg/kg tamoxifen treatment. […] C57 normal mouse muscles were used as controls. P448-Saline, mice treated with saline as negative control.
as §1, with “raloxifene. […] The improvement in muscle function and pathology is even greater after 1 year treatment.” for “raloxifene.”

[3] = system: FKRP-P448L mutant dystrophic mice; test: Grip force measurement in FKRP P448L mutant mice
From the text: FIG. 3. […] C57 normal mice muscles as controls. Saline, mice treated with saline as negative control.
FIG. 5. […] Saline treated control, column 1; C57 normal control, column 8).
as §1

[4] = system: FKRP-P448L mutant dystrophic mice; test: Overall therapeutic effect (muscle pathology and function) on feeding FKRP-P448L mutant mice; settings: for dose giving the best results / muscle pathology and function: feeding 5 days a week; for dose relation of the therapeutic effects: tamoxifen 2, 5, 10, 50 mg/kg/day, raloxifene 10, 50, 100 mg/kg/day
From the text: as §1, with “raloxifene. […] The improvement in muscle function and pathology is even greater after 1 year treatment.” for “raloxifene.”

[5] = system: glycosylated alpha-dystroglycan (α-DG); test: Immunohistochemistry with monoclonal antibody IIH6 on muscles of treated FKRP mutant mice
From the text: FIG. 2. […] C57 normal mouse muscles were used as controls. Saline, mice treated with saline as negative control. The positive staining is seen surrounding the fiber membrane and a few revertant fibers are observed in the saline treated controls.
as §1, with “raloxifene. […] The improvement in muscle function and pathology is even greater after 1 year treatment.” for “raloxifene.”

[6] = 2 mg/kg/day, 1 year treatment; vs saline-treated cohort
[7] = 50 mg/kg/day, 1 year treatment; vs saline-treated cohort
[8] = 6 months of treatment, 5 days a week, 10 mg/kg; vs saline

CC/C(=C(\c1ccccc1)c1ccc(OCCN(C)C)cc1)c1ccccc1 [tamoxifen]
treadmill running distance ([1]; 2 mg/kg/day): Significant improvement | treadmill running time ([1]; 2 mg/kg/day): did not reach significance | treadmill running distance ([1]; 10 mg/kg/day): Significant improvement | treadmill running time ([1]; 10 mg/kg/day): Significant improvement | treadmill running distance ([1]; 50 mg/kg/day): Significant improvement | treadmill running time ([1]; 50 mg/kg/day): Significant improvement | fibrotic streaks in cardiac muscle ([2]; 10 mg/kg/day): Reduced fibrotic streaks | histology (H&E) ([2]; 10 mg/kg/day): Improvement in histology | inflammation, degeneration and fibrotic tissue in skeletal muscle ([2]; 10 mg/kg/day): Reduction | inflammation, degeneration and fibrotic tissue in muscle [2]: Reduction | muscle pathology (H&E) [2]: significantly improve muscle pathology | grip force measurement (other than hindlimb) [3, 6]: Significant improvement | grip force measurement, hindlimb [3, 6]: did not reach significance | grip force measurement ([3]; 10 mg/kg/day, 1 year treatment; vs saline-treated cohort): Significant improvement | grip force measurement [3, 7]: Significant improvement | muscle function by grip force measurement ([3]; 6 months of treatment, 5 days a week, 10 mg/kg; vs saline; 10 mg/kg): improved muscle function | dose giving the best results [4]: 5 to 10 mg/kg | muscle pathology and function [4]: significantly improved muscle pathology and function | dose relation of the therapeutic effects [4]: dose-related with increasing efficacy | levels of glycosylated alpha-dystroglycan (α-DG) detected with IIH6 ([5]; 6 months of treatment, 5 days a week, 10 mg/kg, vs saline): enhance the levels of glycosylated alpha-dystroglycan; also recorded: enhanced expression of alpha-DG | number of IIH6 positive fibers [5, 8]: clearly increased

O=C(c1ccc(OCCN2CCCCC2)cc1)c1c(-c2ccc(O)cc2)sc2cc(O)ccc12 [raloxifene]
treadmill running distance ([1]; 50 mg/kg/day): Significant improvement | treadmill running time ([1]; 50 mg/kg/day): Significant improvement | treadmill running distance ([1]; 100 mg/kg/day): Significant improvement | treadmill running time ([1]; 100 mg/kg/day): Significant improvement | fibrotic streaks in cardiac muscle ([2]; 50 mg/kg/day): Reduced fibrotic streaks | histology (H&E) ([2]; 50 mg/kg/day): Improvement in histology | inflammation, degeneration and fibrotic tissue in skeletal muscle ([2]; 50 mg/kg/day): Reduction | inflammation, degeneration and fibrotic tissue in muscle [2]: Reduction | muscle pathology (H&E) [2]: significantly improve muscle pathology | grip force measurement [3, 7]: Significant improvement | grip force measurement ([3]; 100 mg/kg/day, 1 year treatment; vs saline-treated cohort): Significant improvement | muscle function by grip force measurement [3, 8]: improve muscle function | dose giving the best results [4]: 50 mg/kg | muscle pathology and function [4]: significantly improved muscle pathology and function | dose relation of the therapeutic effects [4]: dose-related with increasing efficacy | levels of glycosylated alpha-dystroglycan (α-DG) detected with IIH6 [5, 8]: enhance the levels of glycosylated alpha-dystroglycan | number of IIH6 positive fibers [5, 8]: clearly increased
